According to article PMC7272715, “Functional Characterization of Pseudoidium neolycopersici Photolyase Reveals Mechanisms Behind the Efficacy of Nighttime UV on Powdery Mildew Suppression” (Frontiers in Microbiology, 2020):

Biological target: T1, PnPHR1 (P. neolycopersici photolyase, PN0912) (Erysiphe neolycopersici, UniProt A0A7D3USA5)
T1 construct: GenBank MT277362-MT277364 printed for the three genes together (MT277363 only by order of listing)
T1 sequence (A0A7D3USA5 1-634): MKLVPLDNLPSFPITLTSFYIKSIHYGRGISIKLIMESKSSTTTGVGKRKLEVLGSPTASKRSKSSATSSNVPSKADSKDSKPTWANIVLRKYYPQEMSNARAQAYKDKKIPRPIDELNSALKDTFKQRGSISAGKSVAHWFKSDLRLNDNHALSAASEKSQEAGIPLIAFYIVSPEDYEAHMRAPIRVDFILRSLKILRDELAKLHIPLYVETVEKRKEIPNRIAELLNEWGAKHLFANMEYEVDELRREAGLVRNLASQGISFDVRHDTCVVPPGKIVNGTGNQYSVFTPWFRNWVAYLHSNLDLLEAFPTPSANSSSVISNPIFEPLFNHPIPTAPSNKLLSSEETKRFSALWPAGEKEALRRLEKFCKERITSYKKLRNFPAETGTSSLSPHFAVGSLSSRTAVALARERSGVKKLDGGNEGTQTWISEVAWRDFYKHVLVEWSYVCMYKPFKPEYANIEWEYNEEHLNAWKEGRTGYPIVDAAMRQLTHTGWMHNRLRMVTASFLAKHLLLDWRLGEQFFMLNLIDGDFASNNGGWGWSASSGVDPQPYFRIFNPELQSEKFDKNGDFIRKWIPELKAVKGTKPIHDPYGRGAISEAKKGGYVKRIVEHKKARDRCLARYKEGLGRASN
Experiment: absorption and fluorescence spectra of purified protein and of chromophore released by heat
Format: binding
Conditions: pH 8.0 storage buffer, 22 °C; intrinsic chromophore co-purified from E. coli; identity inferred from emission (excitation 370 nm); no clear absorption maximum

Cc1cc2c(cc1C)N(C[C@H](O)[C@H](O)[C@H](O)COP(=O)(O)OP(=O)(O)OC[C@H]1O[C@@H](n3cnc4c(N)ncnc43)[C@H](O)[C@@H]1O)c1[nH]c(=O)[nH]c(=O)c1N2 [FADH^–]
absorption and fluorescence spectra of purified protein and of chromophore relea: could only reveal the presence of a reduced form of FAD, i.e., FADH^–
